Measurements published in the supplement of paper PMC10307832.

Key:
Assay in all cases: relative viability (nuclei count vs DMSO), 5 days (fraction); higher = more cells survive
Midostaurin + Trametinib = compound: CO[C@@H]1[C@H](N(C)C(=O)c2ccccc2)C[C@H]2O[C@]1(C)n1c3ccccc3c3c4c(c5c6ccccc6n2c5c31)C(=O)NC4 [Midostaurin] + CC(=O)Nc1cccc(-n2c(=O)n(C3CC3)c(=O)c3c(Nc4ccc(I)cc4F)n(C)c(=O)c(C)c32)c1 [Trametinib] (partner 0.02 µM)
Outline: (§1)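 Lung cancer cell lines were pin-tool dosed in 1536-well plates on the day after seeding, with either a lone drug or a fixed anchor-drug dose plus five library-drug doses (not always all listed) in √10 steps. Nuclei were counted on 4× images after 5 days. Relative viability is the ratio of treated-well to vehicle-well nuclei counts, with each value a median of duplicate plates.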

Midostaurin + Pictilisib = compound: CO[C@@H]1[C@H](N(C)C(=O)c2ccccc2)C[C@H]2O[C@]1(C)n1c3ccccc3c3c4c(c5c6ccccc6n2c5c31)C(=O)NC4 [Midostaurin] + CS(=O)(=O)N1CCN(Cc2cc3nc(-c4cccc5[nH]ncc45)nc(N4CCOCC4)c3s2)CC1 [Pictilisib] (partner 1 µM)
Outline: as §1

Midostaurin + Decitabine = compound: CO[C@@H]1[C@H](N(C)C(=O)c2ccccc2)C[C@H]2O[C@]1(C)n1c3ccccc3c3c4c(c5c6ccccc6n2c5c31)C(=O)NC4 [Midostaurin] + Nc1ncn([C@H]2C[C@H](O)[C@@H](CO)O2)c(=O)n1 [Decitabine] (partner 2 µM)
Outline: as §1

[1] = compound: COc1cc(-c2nn([C@H]3CC[C@H](N4CCN(C(C)=O)CC4)CC3)c3ncnc(N)c23)ccc1NC(=O)c1cc2ccccc2n1C + CC1(C)CCC(c2ccc(Cl)cc2)=C(CN2CCN(c3ccc(C(=O)NS(=O)(=O)c4ccc(N[C@H](CCN5CCOCC5)CSc5ccccc5)c(S(=O)(=O)C(F)(F)F)c4)cc3)CC2)C1 [Navitoclax] (partner 0.5 µM)
Outline: as §1

[2] = compound: COc1cc(-c2nn([C@H]3CC[C@H](N4CCN(C(C)=O)CC4)CC3)c3ncnc(N)c23)ccc1NC(=O)c1cc2ccccc2n1C + Cc1nc(Nc2ncc(C(=O)Nc3c(C)cccc3Cl)s2)cc(N2CCN(CCO)CC2)n1 [Dasatinib] (partner 0.075 µM)
Outline: as §1

For NCI-H2347, the relative viability (Midostaurin + Trametinib; first compound 0.01 µM) was 0.29, the relative viability (Midostaurin + Trametinib; first compound 0.03162 µM) was 0.278 and the relative viability (Midostaurin + Trametinib; first compound 0.1 µM) was 0.309. The relative viability (Midostaurin + Trametinib; first compound 0.3162 µM) was 0.337, the relative viability (Midostaurin + Pictilisib; first compound 0.01 µM) was 0.48 and the relative viability (Midostaurin + Pictilisib; first compound 0.03162 µM) was 0.493. The relative viability (Midostaurin + Pictilisib; first compound 0.1 µM) was 0.648, the relative viability (Midostaurin + Pictilisib; first compound 0.3162 µM) was 0.634 and the relative viability (Midostaurin + Decitabine; first compound 0.01 µM) was 0.599. For the same cell line, the relative viability (Midostaurin + Decitabine; first compound 0.03162 µM) was 0.584, the relative viability (Midostaurin + Decitabine; first compound 0.1 µM) was 0.567 and the relative viability (Midostaurin + Decitabine; first compound 0.3162 µM) was 0.611. It also gave a relative viability ([1]; first compound 0.0128 µM) of 0.864, a relative viability ([1]; first compound 0.04048 µM) of 0.794 and a relative viability ([1]; first compound 0.128 µM) of 0.769. For the same cell line, the relative viability ([1]; first compound 1.28 µM) was 0.858, the relative viability ([2]; first compound 0.0128 µM) was 0.262 and the relative viability ([2]; first compound 0.128 µM) was 0.333. For the same cell line, the relative viability ([2]; first compound 1.28 µM) was 0.308.
NCI-H1648 showed a relative viability (Midostaurin + Trametinib; first compound 0.01 µM) of 0.532, a relative viability (Midostaurin + Trametinib; first compound 0.3162 µM) of 0.432 and a relative viability (Midostaurin + Decitabine; first compound 0.01 µM) of 0.499. It also gave a relative viability (Midostaurin + Decitabine; first compound 0.3162 µM) of 0.446.
Work on NCI-H650 yielded a relative viability (Midostaurin + Trametinib; first compound 0.01 µM) of 1.03, a relative viability (Midostaurin + Trametinib; first compound 0.03162 µM) of 1.07 and a relative viability (Midostaurin + Trametinib; first compound 0.1 µM) of 1. The relative viability (Midostaurin + Trametinib; first compound 0.3162 µM) was 0.945, the relative viability (Midostaurin + Pictilisib; first compound 0.01 µM) was 0.829 and the relative viability (Midostaurin + Pictilisib; first compound 0.03162 µM) was 0.794. The relative viability (Midostaurin + Pictilisib; first compound 0.1 µM) was 0.835, the relative viability (Midostaurin + Pictilisib; first compound 0.3162 µM) was 0.628 and the relative viability (Midostaurin + Decitabine; first compound 0.01 µM) was 0.339. For the same cell line, the relative viability (Midostaurin + Decitabine; first compound 0.03162 µM) was 0.311, the relative viability (Midostaurin + Decitabine; first compound 0.1 µM) was 0.321 and the relative viability (Midostaurin + Decitabine; first compound 0.3162 µM) was 0.334. For the same cell line, the relative viability ([2]; first compound 0.0128 µM) was 0.475, the relative viability ([2]; first compound 0.04048 µM) was 0.592 and the relative viability ([2]; first compound 0.128 µM) was 0.462. The relative viability ([2]; first compound 1.28 µM) was 0.456.
Cell Line HCC-44 has a relative viability (Midostaurin + Trametinib; first compound 0.01 µM) of 1.05, a relative viability (Midostaurin + Trametinib; first compound 0.03162 µM) of 1.01 and a relative viability (Midostaurin + Trametinib; first compound 0.1 µM) of 1.06. The relative viability (Midostaurin + Trametinib; first compound 0.3162 µM) was 1.05, the relative viability (Midostaurin + Pictilisib; first compound 0.01 µM) was 0.571 and the relative viability (Midostaurin + Pictilisib; first compound 0.03162 µM) was 0.576. The relative viability (Midostaurin + Pictilisib; first compound 0.1 µM) was 0.692, the relative viability (Midostaurin + Pictilisib; first compound 0.3162 µM) was 0.327 and the relative viability (Midostaurin + Decitabine; first compound 0.01 µM) was 0.899. For the same cell line, the relative viability (Midostaurin + Decitabine; first compound 0.03162 µM) was 0.972, the relative viability (Midostaurin + Decitabine; first compound 0.1 µM) was 0.989 and the relative viability (Midostaurin + Decitabine; first compound 0.3162 µM) was 0.997. It also gave a relative viability ([1]; first compound 0.0128 µM) of 1.13, a relative viability ([1]; first compound 0.04048 µM) of 0.913 and a relative viability ([1]; first compound 0.128 µM) of 1.02. The relative viability ([1]; first compound 1.28 µM) was 0.934.
Cell Line A549 has a relative viability (Midostaurin + Pictilisib; first compound 0.01 µM) of 0.549, a relative viability (Midostaurin + Pictilisib; first compound 0.03162 µM) of 0.446 and a relative viability (Midostaurin + Pictilisib; first compound 0.1 µM) of 0.483. For the same cell line, the relative viability (Midostaurin + Pictilisib; first compound 0.3162 µM) was 0.224, the relative viability (Midostaurin + Decitabine; first compound 0.01 µM) was 0.255 and the relative viability (Midostaurin + Decitabine; first compound 0.03162 µM) was 0.221. For the same cell line, the relative viability (Midostaurin + Decitabine; first compound 0.1 µM) was 0.216, the relative viability (Midostaurin + Decitabine; first compound 0.3162 µM) was 0.222 and the relative viability ([1]; first compound 0.0128 µM) was 1.22. The relative viability ([1]; first compound 0.04048 µM) was 1.22, the relative viability ([1]; first compound 0.128 µM) was 1.17 and the relative viability ([1]; first compound 1.28 µM) was 1.15.
In the case of NCI-H358, the relative viability (Midostaurin + Trametinib; first compound 0.01 µM) is reported as 0.146, the relative viability (Midostaurin + Trametinib; first compound 0.03162 µM) is reported as 0.158 and the relative viability (Midostaurin + Trametinib; first compound 0.1 µM) is reported as 0.133. The relative viability (Midostaurin + Trametinib; first compound 0.3162 µM) was 0.14, the relative viability (Midostaurin + Pictilisib; first compound 0.01 µM) was 0.437 and the relative viability (Midostaurin + Pictilisib; first compound 0.03162 µM) was 0.222. It also gave a relative viability (Midostaurin + Pictilisib; first compound 0.1 µM) of 0.308, a relative viability (Midostaurin + Pictilisib; first compound 0.3162 µM) of 0.432 and a relative viability (Midostaurin + Decitabine; first compound 0.01 µM) of 0.228. The relative viability (Midostaurin + Decitabine; first compound 0.03162 µM) was 0.236, the relative viability (Midostaurin + Decitabine; first compound 0.1 µM) was 0.231 and the relative viability (Midostaurin + Decitabine; first compound 0.3162 µM) was 0.25. It also gave a relative viability ([2]; first compound 0.0128 µM) of 0.188, a relative viability ([2]; first compound 0.04048 µM) of 0.138 and a relative viability ([2]; first compound 0.128 µM) of 0.151. The relative viability ([2]; first compound 1.28 µM) was 0.163.
In the case of NCI-H1563, the relative viability (Midostaurin + Pictilisib; first compound 0.01 µM) is reported as 0.605, the relative viability (Midostaurin + Pictilisib; first compound 0.03162 µM) is reported as 0.722 and the relative viability (Midostaurin + Pictilisib; first compound 0.1 µM) is reported as 0.599. It also gave a relative viability (Midostaurin + Pictilisib; first compound 0.3162 µM) of 0.692, a relative viability ([2]; first compound 0.0128 µM) of 0.481 and a relative viability ([2]; first compound 0.04048 µM) of 0.484. It also gave a relative viability ([2]; first compound 0.128 µM) of 0.532 and a relative viability ([2]; first compound 1.28 µM) of 0.488.
In the case of NCI-H522, the relative viability (Midostaurin + Trametinib; first compound 0.01 µM) is reported as 0.719, the relative viability (Midostaurin + Trametinib; first compound 0.03162 µM) is reported as 0.825 and the relative viability (Midostaurin + Trametinib; first compound 0.1 µM) is reported as 0.752. The relative viability (Midostaurin + Trametinib; first compound 0.3162 µM) was 0.839, the relative viability (Midostaurin + Decitabine; first compound 0.01 µM) was 0.584 and the relative viability (Midostaurin + Decitabine; first compound 0.03162 µM) was 0.638. It also gave a relative viability (Midostaurin + Decitabine; first compound 0.1 µM) of 0.822, a relative viability (Midostaurin + Decitabine; first compound 0.3162 µM) of 0.525 and a relative viability ([2]; first compound 0.0128 µM) of 0.794. The relative viability ([2]; first compound 0.04048 µM) was 0.843, the relative viability ([2]; first compound 0.128 µM) was 0.809 and the relative viability ([2]; first compound 1.28 µM) was 0.897.
IA-LM gave a relative viability (Midostaurin + Pictilisib; first compound 0.01 µM) of 0.405, a relative viability (Midostaurin + Pictilisib; first compound 0.1 µM) of 0.497 and a relative viability (Midostaurin + Pictilisib; first compound 0.3162 µM) of 0.449. The relative viability ([1]; first compound 0.0128 µM) was 0.87, the relative viability ([1]; first compound 0.04048 µM) was 1.08 and the relative viability ([1]; first compound 0.128 µM) was 0.87. The relative viability ([1]; first compound 1.28 µM) was 0.968.
NCI-H1703 was tested, and the relative viability (Midostaurin + Pictilisib; first compound 0.01 µM) was 0.276, the relative viability (Midostaurin + Pictilisib; first compound 0.03162 µM) was 0.226 and the relative viability (Midostaurin + Pictilisib; first compound 0.1 µM) was 0.245. The relative viability (Midostaurin + Pictilisib; first compound 0.3162 µM) was 0.197, the relative viability ([1]; first compound 0.0128 µM) was 1.45 and the relative viability ([1]; first compound 0.04048 µM) was 1.17. The relative viability ([1]; first compound 0.128 µM) was 0.736 and the relative viability ([1]; first compound 1.28 µM) was 0.236.
LCLC-103H gave a relative viability (Midostaurin + Trametinib; first compound 0.01 µM) of 0.723, a relative viability (Midostaurin + Trametinib; first compound 0.03162 µM) of 0.686 and a relative viability (Midostaurin + Trametinib; first compound 0.1 µM) of 0.717. The relative viability (Midostaurin + Trametinib; first compound 0.3162 µM) was 0.681, the relative viability (Midostaurin + Pictilisib; first compound 0.01 µM) was 0.72 and the relative viability (Midostaurin + Pictilisib; first compound 0.03162 µM) was 0.541. The relative viability (Midostaurin + Pictilisib; first compound 0.1 µM) was 0.6, the relative viability (Midostaurin + Pictilisib; first compound 0.3162 µM) was 0.648 and the relative viability (Midostaurin + Decitabine; first compound 0.01 µM) was 0.712. It also gave a relative viability (Midostaurin + Decitabine; first compound 0.03162 µM) of 0.742, a relative viability (Midostaurin + Decitabine; first compound 0.1 µM) of 0.752 and a relative viability (Midostaurin + Decitabine; first compound 0.3162 µM) of 0.757. For the same cell line, the relative viability ([2]; first compound 0.0128 µM) was 0.538, the relative viability ([2]; first compound 0.04048 µM) was 0.472 and the relative viability ([2]; first compound 0.128 µM) was 0.41. The relative viability ([2]; first compound 1.28 µM) was 0.449.
In the case of SW 900, the relative viability (Midostaurin + Trametinib; first compound 0.01 µM) is reported as 0.759, the relative viability (Midostaurin + Trametinib; first compound 0.03162 µM) is reported as 0.919 and the relative viability (Midostaurin + Trametinib; first compound 0.1 µM) is reported as 0.743. It also gave a relative viability (Midostaurin + Trametinib; first compound 0.3162 µM) of 0.962, a relative viability (Midostaurin + Decitabine; first compound 0.01 µM) of 0.407 and a relative viability (Midostaurin + Decitabine; first compound 0.03162 µM) of 0.491. For the same cell line, the relative viability (Midostaurin + Decitabine; first compound 0.1 µM) was 0.439, the relative viability (Midostaurin + Decitabine; first compound 0.3162 µM) was 0.433 and the relative viability ([2]; first compound 0.0128 µM) was 0.616. The relative viability ([2]; first compound 0.04048 µM) was 0.707, the relative viability ([2]; first compound 0.128 µM) was 0.487 and the relative viability ([2]; first compound 1.28 µM) was 0.578.
